The values below come from patent US8173698B2, “Environmental sensitive fluorogenic compounds and their application for singlet oxygen and protein detection” (priority 2003, dated 2012).

In data set [1] the target is bovine serum albumin (BSA) (Bos taurus, UniProt P02769). To be noted: excitation 488 nm. The protocol: A solution of Compound 5 (1 μM) was prepared in phosphate-buffered saline (PBS) (50 mM phosphate buffer, pH 7.4, 150 mM NaCl). A 2 mL portion of this solution was transferred to a 10 mm×10 mm quartz cuvette. The fluorescence emission spectrum of the solution was recorded on a Hitachi F-4500 spectrofluorometer using excitation at 488 nm. 1 μL of a 4.5 mM solution of bovine serum albumin (30% (w/v) BSA (Sigma Chemical Co., St. Louis, Mo., catalog number A-7284)) was then added to the 2 mL of aqueous dye solution. The emission scan measurement was then repeated. Further measurements were made as the amount of added BSA was increased up to 4.5 μM.
Chain of bovine serum albumin (BSA) (P02769 25-607): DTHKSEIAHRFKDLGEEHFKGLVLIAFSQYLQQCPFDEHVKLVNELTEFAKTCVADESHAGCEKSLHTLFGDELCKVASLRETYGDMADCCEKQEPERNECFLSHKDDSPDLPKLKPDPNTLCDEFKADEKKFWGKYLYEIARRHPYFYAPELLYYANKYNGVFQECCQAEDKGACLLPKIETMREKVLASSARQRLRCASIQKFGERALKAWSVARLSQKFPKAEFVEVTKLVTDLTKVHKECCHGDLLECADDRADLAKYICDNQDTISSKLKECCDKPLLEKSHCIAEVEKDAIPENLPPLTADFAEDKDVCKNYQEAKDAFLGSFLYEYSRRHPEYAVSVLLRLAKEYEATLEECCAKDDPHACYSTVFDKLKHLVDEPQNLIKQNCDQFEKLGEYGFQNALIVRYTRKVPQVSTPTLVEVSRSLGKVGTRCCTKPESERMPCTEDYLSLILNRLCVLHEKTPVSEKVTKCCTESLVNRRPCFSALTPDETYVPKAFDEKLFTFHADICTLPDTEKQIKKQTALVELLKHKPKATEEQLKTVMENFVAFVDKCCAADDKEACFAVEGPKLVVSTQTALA

Data set [2] can be described thus: Dependence of fluorescence emission spectra on solvent. The format is physicochemical. As to conditions: 1 μM; MeOH and aqueous buffer (50 mM Tris pH 7.5) vs DMSO; excitation 488 nm. The protocol: Solutions of Compound 5 (1 μM) were prepared in dimethylsulfoxide (DMSO), methanol (MeOH) and aqueous buffer (50 mM Tris pH 7.5). 2 mL portions of these solutions were transferred to 10 mm×10 mm quartz cuvettes and fluorescence emission spectra were recorded on a Hitachi F-4500 spectrofluorometer using identical instrument detection sensitivity settings. Excitation was at 488 nm in all cases. For the DMSO and MeOH solutions, the spectra were re-scanned after addition of a small amount of 0.1 M NaOH to the 2 mL solution sample. Results are plotted in FIG. 3A and FIG. 3B. FIG. 3B represents an approximately 10-fold enlargement on the y-axis of FIG. 3A.

On to `CC(=O)O.Cc1c2ccccc2c(-c2cc3c(-c4ccccc4C(=O)O)c4cc(Cl)c(O)cc4oc-3cc2=O)c2ccccc12` [Compound 5], for which, in data set [1] (1 μM dye in PBS pH 7.4, BSA 0-5 μM), the “change of fluorescence upon binding to BSA” value is reported as “fluorescence enhancement”. The molecule also returned a fluorescence emission peak in data set [1] (in PBS with BSA) of 540 nm. The “fluorescence of the dye in MeOH and aqueous buffer relative to that in DMSO” value in data set [2] is “extremely weak fluorescence”.
